From the NIST ThermoML archive (doi:10.1016/j.jct.2016.10.009)

Test: xn = mol fraction of the nth substance listed
Conditions: Liquid, Vibrating tube method, x1 = 1

CCC(C)O (centres undefined) [butan-2-ol] + CC(C)OC(C)C
mass density [kg/m3]
Conditions	293.15 K	298.15 K	313.15 K	333.15 K	353.19 K	373.24 K	393.28 K
100 kPa	806.7	802.6	789.6	770.8	750.3	–	–
1000 kPa	807.4	803.3	790.3	771.8	751.4	729.1	704.8
5000 kPa	810.4	806.4	793.7	775.7	756	734.5	711.3
10000 kPa	814	810.1	797.8	780.3	761.3	740.8	718.8
15000 kPa	817.4	813.7	801.6	784.7	766.4	746.6	725.6
20000 kPa	820.7	817	805.3	788.9	771	751.9	731.7
25000 kPa	823.9	820.2	808.6	792.7	775.4	757	737.4
30000 kPa	826.9	823.4	812.1	796.4	779.5	761.6	742.7
35000 kPa	829.8	826.4	815.3	800	783.5	766.1	747.8
40000 kPa	832.7	829.2	818.4	803.5	787.2	770.3	752.5
45000 kPa	835.4	832	821.3	806.6	790.8	774.4	757
50000 kPa	838.1	834.7	824.3	809.8	794.4	778.1	761.2
55000 kPa	840.6	837.4	827.1	812.8	797.7	781.8	765.4
60000 kPa	843.2	839.9	829.8	815.8	801	785.3	769.2
65000 kPa	845.6	842.4	832.5	818.7	804.1	788.8	772.9
70000 kPa	848	844.8	835	821.4	807.2	792.1	776.6
80000 kPa	852.6	849.5	839.9	826.8	812.9	798.4	783.4
90000 kPa	857.1	854.1	844.7	831.9	818.3	804.3	789.8
100000 kPa	861.2	858.3	849.1	836.7	823.5	809.8	795.8
110000 kPa	865.3	862.4	853.5	841.3	828.5	815.1	801.5
120000 kPa	869.2	866.3	857.6	845.6	833.1	820.1	806.8
130000 kPa	873	870.1	861.5	849.9	837.6	824.9	811.9
140000 kPa	876.6	873.9	865.4	853.9	842	829.5	816.8
